Tested on: TGR(mREN2)27 rats
Assay: Rat model of heart failure treated with a galectin-3 inhibitor
Assay type: in vivo
Method: In this study, N-acetyllactosamine (Gal3i) or an angiotensin-converting enzyme inhibitor (ACEi) was administered to TGR(mREN2)27 rats. Untreated TGR(mREN2)27 (REN2) and Sprague-Dawley (SD) rats were used as controls. TGR(mREN2)27 rats overexpress Ren-2, which leads to development of severe hypertension and ultimately heart failure. Fractional shortening, left ventricular end diastolic pressure (LVEDP), fibrosis, and survival were evaluated as a function of time.

Compound: CC(=O)N[C@H]1C(O)O[C@H](CO)[C@@H](O[C@@H]2O[C@H](CO)[C@H](O)[C@H](O)[C@H]2O)[C@@H]1O (some centres unmarked) [Gal3i, N-acetyllactosamine]
- fractional shortening (FIG. 3A, TGR(mREN2)27 rats, relative to placebo-treated REN2 control): prevented a significant loss
- rate of decrease in fractional shortening compared with SD control group (FIG. 3B, SD control group did not develop heart failure): comparable to that of the SD control group
- reduction in fractional shortening from beginning of the study to sacrifice (FIG. 3B, relative to placebo-treated REN2 control): significantly slowed the reduction in fractional shortening
- left ventricular end diastolic pressure (LVEDP) (FIG. 3C, relative to placebo-treated REN2 control): significantly improved the LVEDP
- Tau compared with SD control group (FIG. 3D): comparable to that of the SD control group
- left ventricle pressure decay (Tau) (FIG. 3D, relative to placebo-treated REN2 control): significantly improved the Tau
- cardiac fibrosis (FIG. 4A/4B, cardiac tissue sections, compared to placebo-treated REN2 control group): significantly inhibited fibrosis
- survival (rats remaining, Kaplan-Meier) (FIG. 5, after 40 days, placebo-treated REN2 rats about 65%): approximately 80%

Source: patent US20130029955A1, “INHIBITORS OF GALECTIN-3 AND METHODS OF USE THEREOF” (priority 2011, published 2013)
